Reference: patent US11896600B2, “Composition and method of using eicosanoyl-5-hydroxytryptamide for treating neurodegenerative disorders” (Vidya Herbs, Inc., priority 2019, dated 2024)
Where a name gives a salt, the structure may show the parent alone.

Test system: scopolamine-induced amnesia in mice
Assay: Elevated plus maze (transfer latency) in scopolamine-induced amnesia mice
Conditions: donepezil hydrochloride 3 mg/kg p.o., 7-day pre-treatment; p<0.001
Method: Groups III-V mice were dosed every 24 h interval with respective drugs for 7 consecutive days. On day 7, amnesia was induced in all the groups except the control group by intraperitoneal injection of scopolamine (1 mg/kg) 30 minutes after the respective treatments. 30 minutes later, elevated plus maze (EPM) was carried out to assess the cognitive function. At the end of experiment, mice were sacrificed; serum and brain homogenates were used for further analysis.
Briefly, the acquisition trail (day 6) was carried out by placing the mouse at the end of an open arm. The time taken by the mouse to enter any of the closed arms was taken as transfer latency. Cutoff time allotted for each mouse was 180 s. Retention trail was carried out 24 h after the first trail (Day 7, 30 min after scopolamine treatment). The transfer latency was determined in a similar manner as mentioned before. Shortened transfer latency was considered as an index of memory improvement.
In this study, EPM was applied as a behavioral model to assess learning and memory.

COc1cc2c(cc1OC)C(=O)C(CC1CCN(Cc3ccccc3)CC1)C2 (stereo not shown) [donepezil, donepezil hydrochloride]
reduction of latency period (transfer latency) compared to scopolamine control group: 82.45%
